Test results as given in PMC4581293, “Structure-Based Optimization of Inhibitors of the Aspartic Protease Endothiapepsin” (International Journal of Molecular Sciences, 2015).

molecular target: T1, endothiapepsin (Cryphonectria parasitica, UniProt P11838); experiment: Fluorescence-based enzymatic inhibition assay (adapted from the HIV protease assay); assay type: biochemical; conditions: 0.4 nM endothiapepsin, 1.8 μM substrate, pH 4.6, 2.1% DMSO; E/Z mixture; duplicate, ± SD
T1 construct: Endothiapepsin was purified from Suparen; purchased DSM Food Specialties, Heerlen, The Netherlands (kindly provided) Suparen
T1 sequence (P11838 90-419): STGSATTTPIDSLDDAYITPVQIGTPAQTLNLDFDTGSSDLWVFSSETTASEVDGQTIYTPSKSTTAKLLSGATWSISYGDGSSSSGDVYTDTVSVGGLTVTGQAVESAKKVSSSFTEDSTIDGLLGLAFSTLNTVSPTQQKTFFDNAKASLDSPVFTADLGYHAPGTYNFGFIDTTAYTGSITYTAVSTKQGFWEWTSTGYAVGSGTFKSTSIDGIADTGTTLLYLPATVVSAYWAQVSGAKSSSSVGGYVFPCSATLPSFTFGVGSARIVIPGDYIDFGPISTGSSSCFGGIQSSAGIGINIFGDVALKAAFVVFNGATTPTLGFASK
Source text: To determine their inhibitory potency against endothiapepsin, we subjected these acylhydrazone derivatives to a fluorescence-based enzymatic inhibition assay, adapted from the HIV protease assay.
Endothiapepsin was purified from Suparen® (kindly provided by DSM Food Specialties, Heerlen, The Netherlands) by exchanging the buffer to sodium acetate buffer (0.1 M, pH 4.6) using a Vivaspin 500 (Sartorius, Rotterdam, The Netherlands) with a molecular weight cutoff at 10,000 Da.
Stock solutions (100 mM in DMSO) were prepared for acylhydrazones 2–9 (mixture of E/Z isomers). The final reaction volume was 200 μL containing 0.4 nM endothiapepsin, 1.8 μM substrate and 2.1% DMSO. The final concentration of inhibitors was 1000 μM in the first well and subsequent half dilution in next 10 wells. In the same way, blanks were prepared using DMSO instead of the inhibitor stock solutions. As substrate, Abz–Thr–Ile–Nle-p-nitro-Phe–Gln–Arg–NH2 (purchased from Bachem, Bubendorf, Switzerland) was used for the fluorescence screening assay. The assay was performed with flat bottom 96-well microplates (purchased from Greiner Bio-One, Alphen aan den Rijn, The Netherlands) using a Synergy Mx microplate reader at an excitation wavelength of 337 nm and an emission wavelength of 414 nm. […] The assay buffer (0.1 M sodium acetate buffer, pH 4.6, containing 0.001% Tween 20) was premixed with the substrate and inhibitor; endothiapepsin was added directly before the measurement. As the substrate is a fluorogenic substrate, during measurement the fluorescence increased because of substrate hydrolysis by endothiapepsin. The initial slopes of the fluorescence in the acylhydrazone-containing wells were compared to the initial slope of the blanks for data analysis.

Compound | IC50
N[C@@H](Cc1c[nH]c2ccccc12)C(=O)N/N=C/c1ccccc1F [compound 4] | 38 ± 7 µM
Cc1cccc(C)c1/C=N/NC(=O)[C@@H](N)Cc1c[nH]c2ccccc12 [compound 8] | 30 ± 5 µM
N[C@@H](Cc1c[nH]c2ccccc12)C(=O)N/N=C/c1ccccc1Br [compound 6] | 54.5 ± 0.5 µM
Cc1cccc(/C=N\NC(=O)[C@@H](N)Cc2c[nH]c3ccccc23)c1O [compound 5] | 36 ± 11 µM
N[C@@H](Cc1c[nH]c2ccccc12)C(=O)N/N=C/c1cccc(C(F)(F)F)c1 [compound 3] | 244 ± 32 µM
N[C@@H](Cc1c[nH]c2ccccc12)C(=O)N/N=C/c1ccc(C(F)(F)F)cc1 [compound 2] | 7 ± 0.5 µM
Cc1ccccc1/C=N/NC(=O)[C@@H](N)Cc1c[nH]c2ccccc12 [compound 7] | 59 ± 4 µM

same assay, conditions: derived from the experimentally determined IC50 values using the Cheng–Prusoff equation

Compound | ΔGexpt, experimental Gibbs free energy of binding
N[C@@H](Cc1c[nH]c2ccccc12)C(=O)N/N=C/c1ccccc1F [compound 4] | -6.48 kcal/mol
Cc1cccc(C)c1/C=N/NC(=O)[C@@H](N)Cc1c[nH]c2ccccc12 [compound 8] | -6.62 kcal/mol
N[C@@H](Cc1c[nH]c2ccccc12)C(=O)N/N=C/c1ccccc1Br [compound 6] | -6.26 kcal/mol
Cc1cccc(/C=N\NC(=O)[C@@H](N)Cc2c[nH]c3ccccc23)c1O [compound 5] | -6.5 kcal/mol
N[C@@H](Cc1c[nH]c2ccccc12)C(=O)N/N=C/c1cccc(C(F)(F)F)c1 [compound 3] | -5.38 kcal/mol
N[C@@H](Cc1c[nH]c2ccccc12)C(=O)N/N=C/c1ccccc1 [compound 9] | -6.31 kcal/mol
N[C@@H](Cc1c[nH]c2ccccc12)C(=O)N/N=C/c1ccc(C(F)(F)F)cc1 [compound 2] | -7.48 kcal/mol
Cc1ccccc1/C=N/NC(=O)[C@@H](N)Cc1c[nH]c2ccccc12 [compound 7] | -6.21 kcal/mol

same assay, conditions: obtained from the IC50 values using the Cheng–Prusoff equation

Compound | LE (ligand efficiency)
N[C@@H](Cc1c[nH]c2ccccc12)C(=O)N/N=C/c1ccccc1F [compound 4] | 0.27
Cc1cccc(C)c1/C=N/NC(=O)[C@@H](N)Cc1c[nH]c2ccccc12 [compound 8] | 0.26
N[C@@H](Cc1c[nH]c2ccccc12)C(=O)N/N=C/c1ccccc1Br [compound 6] | 0.26
Cc1cccc(/C=N\NC(=O)[C@@H](N)Cc2c[nH]c3ccccc23)c1O [compound 5] | 0.26
N[C@@H](Cc1c[nH]c2ccccc12)C(=O)N/N=C/c1cccc(C(F)(F)F)c1 [compound 3] | 0.20
N[C@@H](Cc1c[nH]c2ccccc12)C(=O)N/N=C/c1ccccc1 [compound 9] | 0.27
N[C@@H](Cc1c[nH]c2ccccc12)C(=O)N/N=C/c1ccc(C(F)(F)F)cc1 [compound 2] | 0.28
Cc1ccccc1/C=N/NC(=O)[C@@H](N)Cc1c[nH]c2ccccc12 [compound 7] | 0.26
